pIC50: −log10 of the molar value.

Data set [1] addresses integrin αvβ3 (Homo sapiens, UniProt P05106+P06756). Description: integrin αvβ3 binding assay (Pharmacological Example 1 in WO 99/38849). From the text:
Whether or not a compound has integrin αvβ3 antagonistic activity may be determined by assaying the antagonistic action by integrin αvβ3 binding assay as described, for example, in Pharmacological Test Example 1 in WO 99/38849.

Data set [2] relates to platelet aggregation. The data set is described as follows: inhibition of platelet aggregation, rat. The class given is cell-based. As to conditions: read-out: concentration (IC50) necessary for inhibition of platelet aggregation.
For data set [3], the system named is rat vascular smooth muscle cells. The data set is described as follows: adhesion of rat vascular smooth muscle cells to rat vitronectin. It is filed as cell-based. As to conditions: read-out: concentration (IC50) necessary for inhibition of adhesion to vitronectin. The protocol:
(§1) The adhesion of vascular smooth muscle cells to immobilized human vitronectin was measured in accordance with the method of Liaw et al. (L. Liaw et al., Circ. Res., 74, 214 (1994)). A Dulbecco's phosphate buffer (Dulbecco's PBS(−)) solution of human serum-derived vitronectin adjusted to a concentration of 4 μg/ml was first added to wells (50 μl/well) of a microplate (Maxisorp), and a reaction for immobilization was allowed to proceed at 4° C. overnight. After washing twice with 150 μl of Dulbecco's PBS (−), Dulbecco's PBS (−) containing 10 mg/ml of bovine serum albumin was added, followed by blocking at 37° C. for one hr. The microplate was then washed twice with 150 μl of Dulbecco's PBS (−) to prepare an assay plate.
(§2) Next, 50 μl of a Dulbecco's modified Eagle's basal medium containing 20 mg/ml of bovine serum albumin with a medicament added thereto was added to the wells of the human vitronectin-coated assay microplate, followed by pre-cultivation under 5% carbon dioxide at 37° C. for 10 min. Thereafter, 50 μl of the Dulbecco's modified Eagle's basal medium with human vascular smooth muscle cells suspended therein was added thereto, and the plate was thoroughly stirred. A reaction was allowed to proceed under 5% carbon dioxide at 37° C. for 90 min. The reaction solution containing non-adherent cells was then removed, followed by washing three times with Dulbecco's PBS (−). For the adhered cells, 100 μl of Dulbecco's PBS (−) containing 4% paraformaldehyde was added, and immobilization was allowed to proceed at room temperature for 10 min. Next, 100 μl of a Dulbecco's PBS (−) containing 0.5% Toluidine Blue and 4% paraformaldehyde was added, and staining was allowed to proceed at room temperature for 5 min, followed by thorough washing with distilled water. The inside of the wells was then air-dried, and 1% aqueous sodium dodecylsulfate solution was then added to perform cytolysis. The absorbance of the microplate thus obtained was measured at 595 nm. […] The inhibition was calculated by the following equation. IC50 was determined from a primary regression line of the logarithm of each concentration of the test compound and the logarithm of (100−inhibition)/inhibition. [formula]
(§3) Rat vascular smooth muscle cells were cultivated in a medium composed of a mixture of equal amounts of 15% fetal calf serum-containing 199 medium and RPMI 1640 medium. Separately, hamster and dog vascular smooth muscle cells were cultivated in a 10% fetal calf serum-containing Dulbecco's modified Eagle's basal medium. These cultivated cells were then suspended in a Dulbecco's modified Eagle's basal medium to concentrations of 3×10^5 cells/ml (rat), 3×10^5 cells/ml (hamster), and 4×10^5 cells /ml (dog), respectively. Rat vitronectin was used in the adhesion system of rats and hamsters, while bovine vitronectin was used in the adhesion system of dogs.

Data set [4] relates to rat acute myocardial ischemia-reperfusion model. The data set is described as follows: rat acute myocardial ischemia-reperfusion model. It is filed as in vivo. As to conditions: for myocardial infarct size (proportion of the infarct area in the left ventricle): average value±SE; for influence on the blood pressure and the heart rate: doses at which the infarct inhibition action could be obtained. The procedure: Male Wistar rats (330 to 420 g) were subjected to controlled respiration using an artificial respirator under pentobarbital anesthesia (60 mg/kg, i.p.), and the blood pressure and the heart rate were measured through a blood pressure amplifier and a heart rate unit. Further, for the ischemia of the myocardium, an increase in voltage of R-wave in the II leading in an electrocardiogram was confirmed with a monitor through a bioelectricity amplifier. The rats underwent thoracotomy, and the coronary artery, together with the myocardium, was then occluded using a suture with a needle. Ischemia for 3 min and reperfusion for 5 min were followed by ischemia for 45 min and reperfusion for 45 min. Medicaments tested and concentrations thereof were 3 mg/kg+3 mg/kg/hr (bolus +infusion) (L; low dose group) and 6 mg/kg+3 mg/kg/hr (bolus +infusion) (H; high dose group) for the compound represented by formula (V); 3 mg/kg+3 mg/kg/hr (bolus +infusion) for the compound represented by formula (VI); 3 mg/kg+3 mg/kg/hr (bolus +infusion) (L; low dose group) and 6 mg/kg+3 mg/kg/hr (bolus +infusion) (H; high dose group) for the compound represented by formula (IV); 5 mg/kg+5 mg/kg/hr(bolus +infusion)(L; low dose group) and 10 mg/kg+10 mg/kg/hr (bolus +infusion) (H; high dose group) for the compound represented by formula (VII); and 1 mg/kg+1 mg/kg/hr (bolus+infusion) (L; low dose group) and 6 mg/kg+6 mg/kg/hr (bolus+infusion) (H; high dose group) for the compound represented by formula (VIII). For a control group (group C), a 10% (v/v) dimethyl sulfoxide/5% glucose solution was administered, and each medicament was dissolved in the same solvent. The dose volume was 3 ml/kg+3 ml/kg/h (bolus+infusion). The medicament was continuously administered through an infusion pump for the period starting with one min before the ischemia and ending with the completion of the experiment. After reperfusion for 45 min, the rats were slaughtered by excessive administration of pentobarbital, and the heart was removed. After perfusion with a Ringer solution, perfusion staining was carried out with 1.5% triphenyltetrazolium chloride, and the proportion of the infarct area in the left ventricle was quantitatively determined. For animals used in the experiment, each group consisted of 5 rats.

Data set [5] deals with platelet aggregation. Description: inhibition of platelet aggregation, human. The note with it: read-out: concentration (IC50) necessary for inhibition of platelet aggregation. The class given is cell-based.
Data set [6] has as its system human vascular smooth muscle cells. The data set is described as follows: adhesion of human vascular smooth muscle cells to immobilized human vitronectin. The note with it: read-out: concentration (IC50) necessary for inhibition of adhesion to vitronectin. The class given is cell-based. The procedure:
as §1
Separately, human vascular smooth muscle cells cultivated at 37° C. under 5% carbon dioxide in a medium for vascular smooth muscle cells were separated using a Dulbecco's PBS (−) containing trypsin-EDTA, were washed with Dulbecco's PBS (−), and were then suspended in a Dulbecco's modified Eagle's basal medium to a concentration of 2×10^5/ml.
as §2

Data set [7] has as its system dog vascular smooth muscle cells. The data set is described as follows: adhesion of dog vascular smooth muscle cells to bovine vitronectin. It is filed as cell-based. As to conditions: Canis lupus familiaris, read-out: concentration (IC50) necessary for inhibition of adhesion to vitronectin. The procedure: as §1, §2, §3
For data set [8], the system named is platelet aggregation. Description: inhibition of platelet aggregation, dog. The note with it: Canis lupus familiaris, read-out: concentration (IC50) necessary for inhibition of platelet aggregation. The class given is cell-based.
[9] abbreviates: 3 mg/kg+3 mg/kg/hr (bolus+infusion).
The mark [10] stands for this setting: 3 mg/kg+3 mg/kg/hr (bolus+infusion), n=5.

Chain of integrin αvβ3 (P06756 31-1048): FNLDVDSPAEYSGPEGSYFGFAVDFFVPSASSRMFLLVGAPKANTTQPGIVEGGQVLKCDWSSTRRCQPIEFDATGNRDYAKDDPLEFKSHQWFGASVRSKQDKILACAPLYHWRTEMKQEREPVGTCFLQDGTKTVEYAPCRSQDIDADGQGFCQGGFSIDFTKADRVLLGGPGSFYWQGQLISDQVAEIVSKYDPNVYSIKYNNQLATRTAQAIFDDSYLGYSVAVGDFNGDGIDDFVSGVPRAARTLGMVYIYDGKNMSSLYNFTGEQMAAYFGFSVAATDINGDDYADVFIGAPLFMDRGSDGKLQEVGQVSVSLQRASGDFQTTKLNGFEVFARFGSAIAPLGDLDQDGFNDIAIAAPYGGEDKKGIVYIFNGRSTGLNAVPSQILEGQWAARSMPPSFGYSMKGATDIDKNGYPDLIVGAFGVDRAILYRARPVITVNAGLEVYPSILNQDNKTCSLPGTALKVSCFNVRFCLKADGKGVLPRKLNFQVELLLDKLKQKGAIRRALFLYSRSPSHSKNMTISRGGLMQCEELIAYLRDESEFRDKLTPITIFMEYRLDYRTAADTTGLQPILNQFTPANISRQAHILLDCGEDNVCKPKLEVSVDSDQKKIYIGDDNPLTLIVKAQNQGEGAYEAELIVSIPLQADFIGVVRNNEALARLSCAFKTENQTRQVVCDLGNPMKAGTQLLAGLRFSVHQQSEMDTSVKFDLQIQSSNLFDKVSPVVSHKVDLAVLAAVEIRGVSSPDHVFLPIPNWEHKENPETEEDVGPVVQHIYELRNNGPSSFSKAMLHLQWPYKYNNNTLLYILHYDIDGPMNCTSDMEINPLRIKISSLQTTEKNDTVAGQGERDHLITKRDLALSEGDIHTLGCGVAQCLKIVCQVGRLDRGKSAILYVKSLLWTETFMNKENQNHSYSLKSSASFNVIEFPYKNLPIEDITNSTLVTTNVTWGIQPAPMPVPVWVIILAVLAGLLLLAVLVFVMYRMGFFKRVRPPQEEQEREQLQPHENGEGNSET
Chain of integrin αvβ3 (P05106 27-788): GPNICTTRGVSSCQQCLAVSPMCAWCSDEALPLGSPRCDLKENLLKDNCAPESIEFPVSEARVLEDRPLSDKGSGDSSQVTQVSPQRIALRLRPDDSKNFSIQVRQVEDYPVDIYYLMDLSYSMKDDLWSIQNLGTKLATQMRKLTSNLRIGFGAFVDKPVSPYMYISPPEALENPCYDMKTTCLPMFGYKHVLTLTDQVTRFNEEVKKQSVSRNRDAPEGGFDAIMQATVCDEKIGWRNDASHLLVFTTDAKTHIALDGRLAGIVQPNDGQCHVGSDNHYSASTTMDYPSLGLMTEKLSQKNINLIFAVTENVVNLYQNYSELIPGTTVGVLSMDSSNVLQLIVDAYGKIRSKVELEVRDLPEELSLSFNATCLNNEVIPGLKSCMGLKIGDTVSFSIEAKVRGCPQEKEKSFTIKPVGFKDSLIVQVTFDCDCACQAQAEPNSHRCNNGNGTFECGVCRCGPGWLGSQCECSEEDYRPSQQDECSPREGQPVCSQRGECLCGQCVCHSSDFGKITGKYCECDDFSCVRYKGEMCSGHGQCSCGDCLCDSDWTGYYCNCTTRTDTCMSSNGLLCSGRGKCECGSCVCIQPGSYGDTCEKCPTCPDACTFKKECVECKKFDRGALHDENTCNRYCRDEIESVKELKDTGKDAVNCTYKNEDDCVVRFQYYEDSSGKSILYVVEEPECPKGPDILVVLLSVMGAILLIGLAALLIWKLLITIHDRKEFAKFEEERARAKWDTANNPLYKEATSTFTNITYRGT

For `O=C(NCC(NS(=O)(=O)c1ccccc1)C(=O)O)c1ccc(N2CCC(NC3=NCCCN3)CC2)cc1` (stereo in doubt) [formula (V), (2S)-Benzenesulfonylamino-3-[4-{4-(1,4,5,6-tetrahydropyrimidin-2-ylamino)piperidin-1-yl}-benzoylamino]propionic Acid], the pIC50 in data set [1] was 8.92; in data set [2], 4.89; in data set [3] it was 6.10; in data set [5] it was 7.20; in data set [6], 6.72. Moreover, the “reduction of myocardial infarct size as compared with group C” value (shortened to “reduction of myocardial infarct size”) in data set [4] (setting [9]) was found to be 16.1%; in data set [4] (6 mg/kg+3 mg/kg/hr (bolus+infusion), group H) it was 35.5%. The “myocardial infarct size (proportion of the infarct area in the left ventricle)” value in data set [4] (setting [10]) stood at 39.0±1.7%; in data set [4] (6 mg/kg+3 mg/kg/hr (bolus+infusion), group H, n=5), 30.0±1.6%. In addition, in data set [4], the “influence on the blood pressure and the heart rate” value (from here on “influence”) was “no influence”.

For the compound `O=C(NCC(NS(=O)(=O)c1ccccc1)C(=O)O)c1ccc(OCCNC2=NCCCN2)cc1` (stereo in doubt) [formula (VI), 4-[2-(3,4,5,6-Tetrahydropyrimidin-2-ylamino)ethyloxy]benzoyl-2(S)-phenylsulfonylamino-β-alanine], the pIC50 in data set [1] was 9.41; in data set [2], < 4.00; in data set [3], 6.35; in data set [5], 6.74; in data set [6], 7.14. The “reduction of myocardial infarct size” value in data set [4] (setting [9]) came out at 34.8%. Also, the “myocardial infarct size (proportion of the infarct area in the left ventricle)” value in data set [4] (setting [10]) is on record as 30.3±6.1%. The “influence” value in data set [4] is “no influence”.

As to `COc1cc(C(=O)NCC(NS(=O)(=O)c2ccccc2)C(=O)O)ccc1N1CCC(NC2=NCCCN2)CC1` (stereo in doubt) [formula (VIII), (2S)-Benzenesulfonylamino-3-[3-methoxy-4-{4-(1,4,5,6-tetrahydropyrimidin-2-ylamino)-piperidin-1-yl}benzoylamino]propionic Acid], the pIC50 in data set [7] was 7.55; in data set [1], 9.85; in data set [8] it was 7.25; in data set [3] it was 6.12; in data set [5] it was 6.89; in data set [6] it was 6.89. Further, the “reduction of myocardial infarct size” value in data set [4] (1 mg/kg+1 mg/kg/hr (bolus+infusion), group L) is on record as 24.2%; in data set [4] (6 mg/kg+6 mg/kg/hr (bolus+infusion), group H) it was 32.5%. For the same compound, the “myocardial infarct size (proportion of the infarct area in the left ventricle)” value worked out at 27.3±5.2% in data set [4] (1 mg/kg+1 mg/kg/hr (bolus+infusion), group L, n=5, group C 36.0±1.9%) and 24.3±3.8% in data set [4] (6 mg/kg+6 mg/kg/hr (bolus+infusion), group H, n=5, group C 36.0±1.9%). For the same compound, the “influence” value in data set [4] is “no influence”.

For `O=C(NC[C@@H](NS(=O)(=O)c1ccccc1)C(=O)O)c1ccc(N2CCCC(NC3=NCCCN3)C2)cc1` (stereo partly drawn) [formula (IX), (2S)-Benzenesulfonylamino-3-[4-{(3S)-(1,4,5,6-tetrahydropyrimidin-2-ylamino)piperidin-1-yl}benzoylamino]propionic Acid], the pIC50 in data set [7] was 7.96; in data set [1], 9.28; in data set [8] it was 7.23; in data set [3], 7.02; in data set [5] it was 7.25; in data set [6] it was 7.55.

With `O=C(NC[C@H](NS(=O)(=O)c1ccc(O)cc1)C(=O)O)c1ccc(N2CCC(NC3=NCCCN3)CC2)c(F)c1` [formula (VII), 3-[3-Fluoro-4-{4-(1,4,5,6-tetrahydropyrimidin-2-ylamino)piperidin-1-yl}benzoylamino]-(2S)-{(4-hydroxybenzenesulfonyl)amino}propionic Acid], the pIC50 in data set [7] is 7.74; in data set [1], 10.18; in data set [8] it was 6.72; in data set [2], < 4.00; in data set [3], 6.19; in data set [5], 6.64. In addition, the pIC50 in data set [6] is 7.16. The “reduction of myocardial infarct size” value in data set [4] (5 mg/kg+5 mg/kg/hr (bolus+infusion), group L) is on record as 24.5%; in data set [4] (10 mg/kg+10 mg/kg/hr (bolus+infusion), group H) it was 41.5%. Further, the “myocardial infarct size (proportion of the infarct area in the left ventricle)” value is recorded as 29.3±1.7% in data set [4] (5 mg/kg+5 mg/kg/hr (bolus+infusion), group L, n=5, group C 38.8±[…]) and 22.7±3.8% in data set [4] (10 mg/kg+10 mg/kg/hr (bolus+infusion), group H, n=5, group C 38.8±[…]). Moreover, the “influence” value in data set [4] is given as “no influence”.

With `O=C(NC[C@@H](NS(=O)(=O)c1ccccc1)C(=O)O)c1ccc(N2CCCC(NC3=NCCCN3)C2)cc1F` (stereo partly drawn) [formula (X), (2S)-Benzenesulfonylamino-3-[2-fluoro-4-{(3S)-(1,4,5,6-tetrahydropyrimidin-2-ylamino)-piperidin-1-yl}benzoylamino]propionic Acid], the pIC50 was 8.01 in data set [7]; 9.80 in data set [1]; 6.96 in data set [8]; 7.02 in data set [3]; 6.39 in data set [5]; 7.89 in data set [6].

With `O=C(NC[C@@H](NS(=O)(=O)c1cccs1)C(=O)O)c1ccc(N2CCCC(NC3=NCCCN3)C2)cc1` (stereo partly drawn) [formula (XI), 3-[4-{(3S)-(1,4,5,6-Tetrahydropyrimidin-2-ylamino)piperidin-1-yl}benzoylamino]-(2S)-{(thiophene-2-sulfonyl)amino}propionic Acid], the values for the pIC50 in data set [1], in data set [5] and in data set [6] were 9.85, 7.02 and 7.62, respectively.

Source of the values: patent US20030040531A1, “Remedies for reperfusion injury containing integrin alphanubeta 3 antagonist” (priority 2000, published 2003).
